Reference: BindingDB's records for doi:10.1016/j.bmcl.2011.09.019 (Itherx Pharmaceuticals, 2011)

experiment: Inhibition of human SRB1-mediated Hepatitis C virus genotype 2a entry into human 293T cells by immunoblotting

| IC50 [nM] | Compound |
| --- | --- |
| 230 | COC(=O)c1ccc2c(c1)c1ccccc1n2CCCN1C[C@@H](C)N[C@@H](C)C1 |
| 600 | CCOC(=O)c1ccc2c(c1)c1ccccc1n2CCCN1C[C@@H](C)N[C@@H](C)C1 |
| 630 | CC(C)OC(=O)c1ccc2c(c1)c1ccccc1n2CCCN1C[C@@H](C)N[C@@H](C)C1 |
| 1200 | C[C@@H]1CN(CCCn2c3ccccc3c3ccccc32)C[C@H](C)N1 [9-(3-(3,5-dimethylpiperazin-1-yl)propyl)-9H-carbazole] |
